Experimental data reported in US12043601B2, “N-substituted-1H-1,2,4-triazole-3-carboxamides, analogues thereof, and methods of treatment using same” (THE REGENTS OF THE UNIVERSITY OF COLORADO, priority 2018, dated 2024).
In brackets after ≈: the same amount, converted by molar mass.

How the values were obtained:
[1] = tested on: Salmonella strain 14028s; test: Minimum inhibitory concentration in EG minimal media; type: cell-based, Salmonella Typhimurium; details: 18 h; for Growth in EG at concentration tested 1 μg/ml / Growth in EG at concentration tested 2 μg/ml / Growth in EG at concentration tested 4 μg/ml / Growth in EG at concentration tested 8 μg/ml / Growth in EG at concentration tested 16 μg/ml / Growth in EG at concentration tested 32 μg/ml: EG minimal media, 37° C.; for MIC: Salmonella, 14028S
Method: DksA controls transcription of metabolic and virulence genes, allowing bacteria to both grow in minimum media and cause disease. Inhibition of bacterial growth in EG minimum media was used as an easy and reliable proxy of the DksA-dependent regulation of metabolism.
In a non-limiting example, wild-type Salmonella strain 14028s was grown overnight (18.5 h), and then diluted in EG minimal media to a density of about 10^5 CFU/mL. […] Each test tube was incubated at 37° C. with shaking for 18 h and bacterial growth was evaluated. The MIC value was determined as the lowest concentration of compound that inhibited growth.

[2] = Compound solubility; type: physicochemical; details: for Compound Solubility, 1 μM: solvent at 1 μM; for Compound Solubility, 10 μM: solvent at 10 μM; for Compound Solubility, 100 μM: solvent at 100 μM; for Compound Solubility, 1 mM: solvent at 1 mM; for Compound Solubility, 10 mM: solvent at 10 mM; for Compound Solubility, 16 mg/ml: solvent at 16 mg/ml
[3] = molecular target: DksA (Salmonella typhimurium, UniProt P0A1G5); test: DksA-dependent livJ in vitro transcription; type: biochemical; details: livJ promoter; for IVT: concentration showing activity
Method: To measure the potency of a compound in inhibition of DksA biological function, rpsMtranscripts in vitro was determined by non-radioactive in vitro transcription reactions with qPCR analysis with divergent compounds. Briefly, 5 nM pTIM-rpsMplasmid was mixed with […] of compounds in 10 μl reaction buffer (40 mM HEPES [pH 7.4], 2 mM MgCl2, 60 mM potassium glutamate, 0.05% NP-40, 200 μM ATP, 200 μM GTP, 200 μM CTP, 200 μM UTP, and 5 nM E. coli RNA polymerase holoenzyme (NEB, Ipswich, MA) with 5 μM DksA. The in vitro transcription was carried out at 37° C. for 10 min, and then terminated at 70° C. for 10 min. To remove template DNA after treated with DNaseI, DNA-free DNA Removal kit (ThermoFisher) was used according to manufacturer's direction. The resulting materials were used as templates to generate cDNA with 100 U MMLV reverse transcriptase (Promega), 0.45 μM gene specific primer, and 20 U RNase inhibitor (Promega). The amount of cDNA synthesized for 1 h at 42° C. was quantified by real-time PCR (qRT-PCR). The copy number of specific transcripts was calculated to the standard curve generated with known gene copy concentrations. The IC50 is the concentration at which the curve passes through the 50% inhibition level. Standard deviation was calculated from 3 independent experiments.
The compounds were initially tested at 0.1 μM and 1 μM using as a target the promoter of the livJ gene that encodes a transporter of branch-chain amino acids (Table 4).

Chain of DksA (P0A1G5 whole entry): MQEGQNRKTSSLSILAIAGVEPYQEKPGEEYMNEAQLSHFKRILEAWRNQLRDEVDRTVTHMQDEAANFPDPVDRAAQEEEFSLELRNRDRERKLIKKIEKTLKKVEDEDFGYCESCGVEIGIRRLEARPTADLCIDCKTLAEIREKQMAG

| Structure (SMILES) | Growth in EG at concentration tested 1 μg/ml [1] | Growth in EG at concentration tested 2 μg/ml [1] | Growth in EG at concentration tested 4 μg/ml [1] | Growth in EG at concentration tested 8 μg/ml [1] | Growth in EG at concentration tested 16 μg/ml [1] | Growth in EG at concentration tested 32 μg/ml [1] | Compound Solubility, 1 μM [2] | Compound Solubility, 10 μM [2] | Compound Solubility, 100 μM [2] | Compound Solubility, 1 mM [2] | Compound Solubility, 10 mM [2] | Compound Solubility, 16 mg/ml [2] | In vitro transcription assay result, 0.1 μM [3] | In vitro transcription assay result, 1 μM [3] | MIC [1] [µg/mL] | IVT [3] [µM] |
| --- | --- | --- | --- | --- | --- | --- | --- | --- | --- | --- | --- | --- | --- | --- | --- | --- |
| COc1ccc(CNC(=O)c2nc[nH]n2)cc1OC [Compound 2, N-(3,4-dimethoxybenzyl)-1H-1,2,4-triazole-3-carboxamide] | + | + | + | + | + | + | water | water | water | water | water | DMSO | no change | no change | – | – |
| COc1cccc(CNC(=O)c2nc[nH]n2)c1OC [Compound 3, N-(2,3-dimethoxybenzyl)-1H-1,2,4-triazole-3-carboxamide] | + | + | + | + | – | – | water | water | water | water | water | DMSO | no induction | no induction | 32 (≈ 122 µM) | 0.1 |
| COc1ccc(CNC(=O)c2nc[nH]n2)cc1 [Compound 4, N-(4-methoxybenzyl)-1H-1,2,4-triazole-3-carboxamide] | + | + | + | – | – | – | water | water | water | water | water | DMSO | no change | no change | 8 (≈ 34.4 µM) | – |
| O=C(Nc1cccc(OC(F)(F)F)c1)c1nc[nH]n1 [Compound 5, N-(3-(trifluoromethoxy)phenyl)-1H-1,2,4-triazole-3-carboxamide] | + | + | + | + | + | + | water | water | water | water | DMSO | DMSO | no induction | no induction | – | 0.1 |
| O=C(NCc1ccc2c(c1)OCO2)c1nc[nH]n1 [Compound 6, N-(benzo[d][1,3]dioxol-5-ylmethyl)-1H-1,2,4-triazole-3-carboxamide] | + | + | – | – | – | – | water | water | water | water | water | DMSO | no change | no change | 8 (≈ 32.5 µM) | – |
| COc1cccc(CNC(=O)c2nc[nH]n2)c1 [Compound 7, N-(3-methoxybenzyl)-1H-1,2,4-triazole-3-carboxamide] | + | + | + | – | – | – | water | water | water | water | water | DMSO | no change | no change | 8 (≈ 34.4 µM) | – |
| O=C(NCc1ccc(OC(F)(F)F)cc1)c1nc[nH]n1 [Compound 8, N-(4-(trifluoromethoxy)benzyl)-1H-1,2,4-triazole-3-carboxamide] | + | + | + | + | + | + | water | water | water | water | DMSO | DMSO | no induction | no induction | – | 0.1 |
| O=C(NCc1cccc(OC(F)(F)F)c1)c1nc[nH]n1 [Compound 9, N-(3-(trifluoromethoxy)benzyl)-1H-1,2,4-triazole-3-carboxamide] | + | + | + | + | + | + | water | water | water | water | DMSO | DMSO | no induction | Repression | – | 0.1 |
| COc1ccc(CNC(=O)c2nc[nH]n2)cc1C(F)(F)F [Compound 10, N-(4-methoxy-3-(trifluoromethyl)benzyl)-1H-1,2,4-triazole-3-carboxamide] | + | + | + | + | + | + | water | water | water | water | water | DMSO | no change | no induction | – | 1 |
| O=C(Nc1ccc(C(F)(F)F)cc1)c1nc[nH]n1 [Compound 11, N-(4-(trifluoromethyl)phenyl)-1H-1,2,4-triazole-3-carboxamide] | + | + | + | + | + | + | water | water | water | DMSO | DMSO | DMSO | good repression | good repression | – | 0.1 |
| CC(C)(C)c1ccc(NC(=O)c2nc[nH]n2)cc1 [Compound 13, N-(4-(tert-butyl)phenyl)-1H-1,2,4-triazole-3-carboxamide] | + | + | + | + | + | + | water | water | water | water | DMSO | DMSO | no induction | no induction | – | 0.1 |
